The text below walks through data of patent US5820881A, “Microspheres of diamide-dicarboxylic acids” (Emisphere Technologies, Inc., priority 1995, dated 1998).

What all share (format): physicochemical
Series [1] is described as follows: Microsphere formation (Li2CO3 solution mixed with aqueous citric acid; microscopic examination). Conditions: for Microsphere formation / self-assembly: aqueous salt solution + citric acid; for Diameter of spheres: from 10 μm to submicrons, light microscopy. The method, then:
The bis-amide dicarboxylic acid prepared according to the method of Example 4 was dissolved in 0.1 mL of aqueous Li2 CO3 (0.1M) to yield a clear solution of the lithium salt in deionized water. 50 μL of the 0.1M solution was mixed with 50 μL of 1M aqueous citric acid and shaken. A white suspension was generated.
The method of Example 17 was followed, substituting the bis-amide dicarboxylic acid prepared according to the method of Example 5. A white suspension was generated.
The method of Example 17 was followed, substituting the bis-amide dicarboxylic acid prepared according to the method of Example 6. A white suspension was generated.
The method of Example 17 was followed, substituting the bis-amide dicarboxylic acid prepared according to the method of Example 15. A white suspension was generated.

Series [2] can be described thus: pH dependence of microsphere formation (turbidity, % transmittance at 600 nm). The settings on record: for pH at which % T is > 95%: amide concentration 50 mM in 500 mM Li citrate. The method, then:
500 μL of 100 mM dilithium diamide solution prepared according to the method of Example 21 was mixed with an equal volume of one of a series of 1M lithium citrate buffers containing between 0 to 1 equivalent of lithium hydroxide so that the final measured pH of the mixture ranged from ca. 2.4 to 4.0. Turbidity was assessed over this pH range by measuring % transmittance at 600 nm.
The method of Example 25 was followed substituting the bis-amide dicarboxylic acid prepared according to the method of Example 5.
The method of Example 25 was followed substituting the bis-amide dicarboxylic acid prepared according to the method of Example 6.
The method of Example 25 was followed substituting the bis-amide dicarboxylic acid prepared according tot he method of Example 15.
(§1) Each of the compounds of Examples 4-6 and 15 was evaluated by monitoring the change in the solution turbidity, while altering the pH at a fixed Phe amide concentration or by holding the pH constant and varying the concentration of the amide substrate. Each concentration dependence was determined in 500 mM citric acid from a plot of the solution transmittance (% T) vs. concentration. […] The influence of pH on solution turbidity was studied in solutions containing 50 mM in 500 mM lithium citrate buffers. The percent transmittance (% T) was <0.5% at pH 2.67 and >95% at pH 3.26. The pKas were determined by titration of each Phe amide substrate. As expected, the pKas of these Phe diamide diacids were all very similar.

The nature of series [3]: Concentration dependence of microsphere formation (turbidity, % transmittance at 600 nm). The settings on record: for Concentration of amide above which a dense suspension (% T < 0.5) of microspheres is formed: 500 mM citric acid (pH 2.4). The method, then:
A stock solution containing the lithium salt of the diamide prepared according to the method of Example 4 was prepared by stepwise addition of exactly two equivalents of a standardized solution of LiOH (stored under argon to prevent precipitation of lithium carbonate). The final concentration of the dilithium salt of the diamine was 100 mM, and the pH was always between 7.0 and 8.0. The solution was filtered through a 0.2 μm membrane prior to use. An appropriate amount of the 100 mM stock solution was diluted with deionized water to 500 μL. Microsphere formation was then initiated by addition of an equal volume of 1M citric acid, so that the final concentration ranged from 0 to 50 mM dilithium diamide in 500 mM citric acid with the pH below 2.5. Turbidity was assessed over this range of concentrations by measuring % transmittance at 600 nm. […]
as §1

A short description of series [4]: pKa determination by titration. The method, then: as §1
Series [5] is described as follows: SEM/TEM examination of microcapsules (tannic acid / OsO4 fixation). The method, then:
The sodium salt of the bis-amide dicarboxylic acid of Example 6 was prepared. A white suspension was prepared by combining 100 μL of 0.43M citric acid and 50 μL of a 0.1M aqueous solution of the sodium salt of the diamide. The aqueous suspension was deposited on polylysine-coated glass coverslips and fixed with 2% OsO4 for 4 hours. The sample was washed with distilled water, air dried and sputter coated with gold. SEM photographs are illustrated in FIGS. 3a and 3b.
A white suspension was also prepared by adding a solution containing 50 μL of a 0.86M citric acid and 50 μL of 3 wt. % tannic acid to 50 μL of a 100 mM aqueous solution of the sodium salt of the diamide. The pH was lowered from 7.7 to 2.4. The aqueous solution was deposited on a Nucleopore filter and fixed with 4% OsO4 for 4 hours. The sample was washed with distilled water and 95% EtOH and was air dried. The sample was dispersed in 100% LR white resin and polymerized in an oven at 60° C. TEM photographs are illustrated in FIG. 4.
Estimates of the microcapsule shell thickness (150 nm) would require approximately 100 molecules of the diamide of Example 6 oriented end-to-end to traverse the microcapsule shell. However, a stacking of the bis amides seems more likely. A stacked array would allow for a greater number of assembled tetrapeptides to traverse the capsule shell. […] However, some tannic acid may be intercalated in the microsphere wall.

Entries after “also recorded” stand apart in the source; their conditions may differ. Where a name gives a salt, the structure may show the parent alone. Read-outs that look alike come from different tables or passages of the source.

Consider `O=C(CCC(=O)N[C@@H](Cc1ccccc1)C(=O)O)N[C@@H](Cc1ccccc1)C(=O)O` [Example 12, bis(Nα-amido-L-phenylalanine) succinate], for which the “Microsphere formation / self-assembly” value in series [1] was “neither the oxalic derivative of Example 8 nor the succinic analogue of Example 12 did; also recorded: does not self assemble; also recorded: did not form microspheres”.

On to `O=C(/C=C\C(=O)N[C@@H](Cc1ccccc1)C(=O)O)N[C@@H](Cc1ccccc1)C(=O)O` [Example 15, bis(Nα-amido-L-phenylalanine) maleate], for which the “pH at which % T is > 95%” value in series [2] is reported as 3.26. Besides, in series [3], the “Concentration of amide above which a dense suspension (% T < 0.5) of microspheres is formed” value came out at 23000 µM. For the same molecule, the pKa in series [4] (read-out: pKa1) was found to be 3.7. Moreover, the pKa in series [4] (read-out: pKa2) came to 4.87. In addition, in series [1], the “Microsphere formation / self-assembly” value is “formation of tiny spheres; also recorded: generated microcapsules” and the Diameter of spheres is listed as at most 10 μm.

As to `CC(C)(C(=O)N[C@@H](Cc1ccccc1)C(=O)O)C(=O)N[C@@H](Cc1ccccc1)C(=O)O` [Example 5, bis(Nα-amido-L-phenylalanine) 1,1-dimethyl malonate], the “pH at which % T is > 95%” value in series [2] was 3.26. Further, the “Concentration of amide above which a dense suspension (% T < 0.5) of microspheres is formed” value in series [3] was determined as 25000 µM. Moreover, the pKa was found to be 3.55 in series [4] (read-out: pKa1) and 4.62 in series [4] (read-out: pKa2). Further, the “Microsphere formation / self-assembly” value in series [1] is on record as “formation of tiny spheres”. The Diameter of spheres in series [1] was at most 10 μm.

As for `O=C(/C=C/C(=O)N[C@@H](Cc1ccccc1)C(=O)O)N[C@@H](Cc1ccccc1)C(=O)O` [Example 16, bis(Nα-amido-L-phenylalanine) fumarate], the “Microsphere formation / self-assembly” value in series [1] is given as “did not form microspheres”.

With `O=C(N[C@@H](Cc1ccccc1)C(=O)O)C(=O)N[C@@H](Cc1ccccc1)C(=O)O` [Example 8, bis(Nα-amido-L-phenylalanine) oxalate], in series [1], the “Microsphere formation / self-assembly” value is “neither the oxalic derivative of Example 8 nor the succinic analogue of Example 12 did; also recorded: did not form microspheres”.

As to `O=C(O)CCC(=O)N[C@@H](Cc1ccccc1)C(=O)O` [Example 11, (Nα-amido-L-phenylalanine) monosuccinate], the “Microsphere formation / self-assembly” value in series [1] was “did not form microspheres”.

As to `O=C(CC(=O)N[C@@H](Cc1ccccc1)C(=O)O)N[C@@H](Cc1ccccc1)C(=O)O` [Example 4, bis(Nα-amido-L-phenylalanine) malonate], the “Percent transmittance (% T) at pH 2.67” value in series [2] (50 mM in 500 mM lithium citrate buffers, pH 2.67) is below 0.5%. Moreover, the “Percent transmittance (% T) at pH 3.26” value in series [2] (50 mM in 500 mM lithium citrate buffers, pH 3.26) is listed as above 95%. Moreover, the “pH at which % T is > 95%” value in series [2] worked out at 3.26. Further, the “Estimated number of diamide molecules per one anionic species sufficient to abort assembly” value in series [2] (estimated from pKa and pH measurements) is around 30 molecules. Besides, the “Concentration of amide above which a dense suspension (% T < 0.5) of microspheres is formed” value in series [3] was found to be 30000 µM. Moreover, the “% transmittance, clear solution” value in series [3] (500 mM citric acid, before transition at 30 mM, 600 nm) is given as above 95 % T. For the same molecule, the “% transmittance, dense suspension of microcapsules” value in series [3] (500 mM citric acid, diamide above 30 mM, 600 nm) came to 0.2 % T. Besides, the results for the pKa in series [4] (read-out: pKa1) and in series [4] (read-out: pKa2) were 3.67 and 4.7, respectively. Also, the “Microsphere formation / self-assembly” value in series [1] was “formation of tiny spheres; also recorded: generated microcapsules”. The Diameter of spheres in series [1] is listed as at most 10 μm.

Take `O=C(O)[C@H](Cc1ccccc1)NC(=O)C1(C(=O)N[C@@H](Cc2ccccc2)C(=O)O)CC1` [Example 6, bis(Nα-amido-L-phenylalanine) 1,1 -cyclopropane dicarboxylate]: in series [2], the “pH at which % T is > 95%” value turned out to be 3.26. The “Incorporation of tannic acid into the microsphere shell” value in series [5] is recorded as “Little tannic acid was incorporated into the microsphere shell”. In series [5] (shell thickness 150 nm), the “Molecules oriented end-to-end required to traverse the microcapsule shell” value is given as “approximately 100 molecules”. Also, the “Estimated microcapsule shell thickness” value in series [5] (sodium salt, citric acid + tannic acid, TEM) is around 150 nm. Also, the “Concentration of amide above which a dense suspension (% T < 0.5) of microspheres is formed” value in series [3] is 13000 µM. For the same molecule, the pKa in series [4] (read-out: pKa1) is 3.53. Also, in series [4] (read-out: pKa2), the pKa is 4.5. In addition, in series [1], the “Microsphere formation / self-assembly” value is on record as “formation of tiny spheres” and the Diameter of spheres is on record as at most 10 μm.
